This passage reports IC50 results from patent US8148391B2 (Cephalon, Inc., priority 2006, dated 2012).

Counter-ions that a name gives are not always drawn. Like-named read-outs stand apart in the source and are kept apart here.

Assay [1] concerns the target T1, c-Met (cytoplasmic domain) (Homo sapiens, UniProt P08581).
T1 construct: 10 ng/mL c-Met (cytoplasmic domain, Invitrogen Corporation #PV3143); purchased Invitrogen Corporation PV3143
The assay can be described thus: c-Met Kinase Assay (same methods as for ALK, with modifications). It is filed as biochemical. Summed up:
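This plate-based kinase format uses immobilized phospholipase C-γ as substrate, phosphorylated by c-Met cytoplasmic domain (10 ng/mL) at 37° C for 15 minutes.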

Assay [2] has as its target T2, baculovirus-expressed ALK (Homo sapiens, UniProt Q9UM73).
T2 construct: host or cells: baculovirus expression system
The assay can be described thus: ALK Kinase Assay (ELISA-type, time-resolved fluorescence). Type of assay: biochemical. Summed up: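 Substrate coating: phospholipase C-γ, 10 μg/mL in TBS. Kinase step: 30 ng/ml ALK, 15 min, 37° C. Detection and analysis: Eu-N1 PT66 antibody, with IC50 fitted as a sigmoidal variable-slope dose-response curve.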

Setting [3] is: 1 μM ATP (Km level), read-out: cMet Activity (c-Met Kinase Inhibition, IC50).
[4] abbreviates: 1 μM ATP (Km level), read-out: ALK Activity (ALK Kinase Inhibition, IC50).
[5] abbreviates: 1 μM ATP (Km level), 10 ng/mL c-Met, read-out: cMet Activity (c-Met kinase inhibition, IC50 class).
Where [6] appears, read: 1 μM ATP (Km level), 30 ng/ml ALK, 37° C., 15 minutes, read-out: ALK Activity (ALK kinase inhibition, IC50 class).
The mark [7] stands for this setting: c-Met kinase inhibition, 1 μM ATP (Km level), read-out: cMet Activity.
The mark [8] stands for this setting: ALK kinase inhibition, 1 μM ATP (Km level), read-out: ALK Activity.
The mark [9] stands for this setting: c-Met kinase inhibition, 1 μM ATP, read-out: cMet Activity.
Setting [10] is: ALK kinase inhibition, 1 μM ATP, read-out: ALK Activity.

T1 sequence (P08581 956-1390 limits assumed): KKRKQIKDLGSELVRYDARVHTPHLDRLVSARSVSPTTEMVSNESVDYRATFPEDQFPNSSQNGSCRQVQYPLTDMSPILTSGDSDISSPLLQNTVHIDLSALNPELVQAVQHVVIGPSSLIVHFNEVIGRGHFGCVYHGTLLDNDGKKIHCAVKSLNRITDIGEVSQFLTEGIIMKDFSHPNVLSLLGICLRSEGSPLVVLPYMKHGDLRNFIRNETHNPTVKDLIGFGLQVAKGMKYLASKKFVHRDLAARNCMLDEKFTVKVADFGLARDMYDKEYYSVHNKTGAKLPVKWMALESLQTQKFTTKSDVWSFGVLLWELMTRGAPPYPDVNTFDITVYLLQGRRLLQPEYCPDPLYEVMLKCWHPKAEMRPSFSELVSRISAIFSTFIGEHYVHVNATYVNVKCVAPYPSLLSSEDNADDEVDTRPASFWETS
T2 sequence (Q9UM73 19-1620): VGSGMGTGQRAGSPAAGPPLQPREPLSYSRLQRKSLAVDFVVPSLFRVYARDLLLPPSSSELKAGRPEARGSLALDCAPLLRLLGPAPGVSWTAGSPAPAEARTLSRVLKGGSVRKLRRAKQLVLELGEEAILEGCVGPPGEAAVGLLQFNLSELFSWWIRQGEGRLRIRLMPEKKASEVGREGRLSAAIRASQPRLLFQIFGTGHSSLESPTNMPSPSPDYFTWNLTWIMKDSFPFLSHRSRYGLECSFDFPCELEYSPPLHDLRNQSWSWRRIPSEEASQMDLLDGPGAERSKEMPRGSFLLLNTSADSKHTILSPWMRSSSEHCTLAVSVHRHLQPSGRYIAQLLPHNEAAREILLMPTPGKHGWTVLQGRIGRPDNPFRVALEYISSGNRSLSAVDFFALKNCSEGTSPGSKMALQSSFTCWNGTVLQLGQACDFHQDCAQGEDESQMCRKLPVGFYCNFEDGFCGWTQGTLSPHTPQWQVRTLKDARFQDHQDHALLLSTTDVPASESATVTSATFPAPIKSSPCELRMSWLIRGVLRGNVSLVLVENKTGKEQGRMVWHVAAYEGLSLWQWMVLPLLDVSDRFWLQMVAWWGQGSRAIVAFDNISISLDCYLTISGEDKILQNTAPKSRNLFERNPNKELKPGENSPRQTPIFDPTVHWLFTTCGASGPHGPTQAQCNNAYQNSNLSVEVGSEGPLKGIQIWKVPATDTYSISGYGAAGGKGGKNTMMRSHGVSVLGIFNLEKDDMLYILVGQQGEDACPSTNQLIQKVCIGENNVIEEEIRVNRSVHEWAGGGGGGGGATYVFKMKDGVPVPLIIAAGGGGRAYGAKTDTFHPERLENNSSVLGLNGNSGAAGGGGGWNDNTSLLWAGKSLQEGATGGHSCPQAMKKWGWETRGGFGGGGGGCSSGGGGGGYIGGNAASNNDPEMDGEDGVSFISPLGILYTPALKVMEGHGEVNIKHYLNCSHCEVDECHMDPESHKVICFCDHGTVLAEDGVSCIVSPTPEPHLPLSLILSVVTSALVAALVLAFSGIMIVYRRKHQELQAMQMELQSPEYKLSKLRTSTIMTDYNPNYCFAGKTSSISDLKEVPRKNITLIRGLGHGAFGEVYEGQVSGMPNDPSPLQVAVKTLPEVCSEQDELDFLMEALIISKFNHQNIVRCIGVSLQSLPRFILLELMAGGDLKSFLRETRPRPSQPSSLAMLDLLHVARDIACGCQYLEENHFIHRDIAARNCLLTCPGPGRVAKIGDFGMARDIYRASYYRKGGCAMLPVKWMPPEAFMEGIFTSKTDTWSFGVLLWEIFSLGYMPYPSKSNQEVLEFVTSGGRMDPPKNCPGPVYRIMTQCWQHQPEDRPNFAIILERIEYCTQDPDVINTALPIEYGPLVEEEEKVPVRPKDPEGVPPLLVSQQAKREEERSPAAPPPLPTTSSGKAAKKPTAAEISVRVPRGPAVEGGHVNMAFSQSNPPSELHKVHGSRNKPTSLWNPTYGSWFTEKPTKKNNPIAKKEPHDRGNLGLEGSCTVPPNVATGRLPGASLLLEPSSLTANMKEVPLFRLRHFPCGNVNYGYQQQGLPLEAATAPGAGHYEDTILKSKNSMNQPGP

Consider `CN1C(=O)CCCc2cc(Nc3ncc(Cl)c(Nc4ccccc4-c4nc(C(F)(F)F)c[nH]4)n3)ccc21` [Example 1013, 7-{5-Chloro-4-[2-(4-trifluoromethyl-1H-imidazol-2-yl)-phenylamino]-pyrimidin-2-ylamino}-1-methyl-1,3,4,5-tetrahydro-benzo[b]azepin-2-one], for which the values for the IC50 in assay [1] (setting [3]) and in assay [2] (setting [4]) were 1000 to 10000 nM and 100 to 1000 nM, respectively.
On to `CCN1C(=O)CCCc2ccc(Nc3ncc(Cl)c(Nc4ccccc4CCC#N)n3)cc21` [Example 1232, 3-{2-[5-Chloro-2-(1-ethyl-2-oxo-2,3,4,5-tetrahydro-1H-1-benzazepin-8-ylamino)-pyrimidin-4-ylamino]-phenyl}-propionitrile], for which the IC50 lay within 1000 to 10000 nM in assay [1] (setting [5]) and 100 to 1000 nM in assay [2] (setting [6]).
`COCCN1CCc2ccc(Nc3ncc(Cl)c(Nc4ccccc4C(=O)NCCCCN(C)C)n3)cc2CC1` [Example 1400, {5-Chloro-2-[3-(2-methoxy-ethyl)-2,3,4,5-tetrahydro-1H-benzo[d]azepin-7-ylamino]-pyrimidin-4-ylamino}-N-(4-dimethylamino-butyl)-benzamide]: the results for the IC50 in assay [1] (setting [5]) and in assay [2] (setting [6]) were 1000 to 10000 nM and 100 to 1000 nM, respectively.
Turning to `CCOC(=O)N1CCCOc2ccc(Nc3ncc(Cl)c(Nc4ccsc4C(=O)NC)n3)cc21` [Example 1411, 2-[5-Chloro-4-(2-methylcarbamoyl-thiophen-3-ylamino)-pyrimidin-2-ylamino]-7,8-dihydro-6H-5-oxa-9-aza-benzocycloheptene-9-carboxylic acid ethyl ester], the IC50 in assay [1] (setting [5]) fell in the range of 1000 to 10000 nM; in assay [2] (setting [6]) it was 100 to 1000 nM.
Take `Cc1nnc(-c2ccccc2Nc2nc(Nc3ccc4c(c3)C(C)(C)CCC(=O)N4)ncc2Cl)s1` [Example 973, 7-{5-Chloro-4-[2-(5-methyl-[1,3,4]thiadiazol-2-yl)-phenylamino]-pyrimidin-2-ylamino}-5,5-dimethyl-1,3,4,5-tetrahydro-benzo[b]azepin-2-one]: the results for the IC50 in assay [1] (setting [3]) and in assay [2] (setting [4]) were 1000 to 10000 nM and 100 to 1000 nM, respectively.
For the molecule `CNS(=O)(=O)c1ccccc1Nc1nc(Nc2ccc3c(c2)COC[C@@H]2CCCN32)ncc1Cl` [Example 13, 2-{5-Chloro-2-[(S)-(2,3,3a,4-tetrahydro-1H,6H-5-oxa-10b-aza-benzo[e]azulen-8-yl)amino]-pyrimidin-4-ylamino}-N-methyl-benzenesulfonamide], the IC50 in assay [1] (setting [7]) was 1000 to 10000 nM; in assay [2] (setting [8]), below 100 nM.
On to `CNC(=O)c1cccc(F)c1Nc1nc(Nc2ccc3c(c2)N(C(=O)CN(C)C)CCCC3(C)C)ncc1Cl` [Example 1630, 2-{5-Chloro-2-[1-(2-dimethylamino-acetyl)-5,5-dimethyl-2,3,4,5-tetrahydro-1H-benzo[b]azepin-8-ylamino]-pyrimidin-4-ylamino}-3-fluoro-N-methyl-benzamide], for which the IC50 in assay [1] (setting [9]) and in assay [2] (setting [10]) was 100 to 1000 nM each time.
`COc1cc2c(cc1Nc1ncc(Cl)c(N[C@@H]3[C@H](C(N)=O)[C@H]4C=C[C@@H]3C4)n1)CCN(CC(F)(F)F)CC2` (relative stereo) [Example 250, (2-exo, 3-exo)-3-{5-Chloro-2-[8-methoxy-3-(2,2,2-trifluoro-ethyl)-2,3,4,5-tetrahydro-1H-benzo[d]azepin-7-ylamino]-pyrimidin-4-ylamino}-bicyclo[2.2.1]hept-5-ene-2-carboxylic acid amide hydrochloride]: the IC50 in assay [1] (setting [7]) was above 10000 nM; in assay [2] (setting [8]) it was below 100 nM.
With `CCN1C(=O)CCC(C)(C)c2cc(Nc3ncc(Cl)c(Nc4c(Cl)cccc4C(=O)NC)n3)ccc21` [Example 389, 3-Chloro-2-[5-chloro-2-(1-ethyl-5,5-dimethyl-2-oxo-2,3,4,5-tetrahydro-1H-benzo[b]azepin-7-ylamino)-pyrimidin-4-ylamino]-N-methyl-benzamide], the IC50 in assay [1] (setting [7]) and in assay [2] (setting [8]) was 100 to 1000 nM throughout.
On to `CNC(=O)c1ccccc1Nc1nc(Nc2ccc3c(c2)CCC(N2CCOCC2)CC3)ncc1Cl` (stereo not drawn) [Example 178, 2-[5-Chloro-2-(7-morpholin-4-yl-6,7,8,9-tetrahydro-5H-benzocyclohepten-2-ylamino)-pyrimidin-4-ylamino]-N-methyl-benzamide], for which the IC50 in assay [1] (setting [7]) and in assay [2] (setting [8]) was below 100 nM each time.
With `CC(=O)N(C)Cc1ccccc1Nc1nc(Nc2ccc3c(c2)CCOC(=O)N3C)ncc1Cl` [Example 1792, N-{2-[5-Chloro-2-(5-methyl-6-oxo-5,6,8,9-tetrahydro-7-oxa-5-aza-benzocyclohepten-2-ylamino)-pyrimidin-4-ylamino]-benzyl}-N-methyl-acetamide], the IC50 in assay [1] (setting [9]) and in assay [2] (setting [10]) was 1000 to 10000 nM throughout.
Consider `CN(C)S(=O)(=O)c1ccccc1Nc1nc(Nc2ccc3c(c2)CCN(C(=O)C2COCCO2)CC3)ncc1Cl` (stereo not drawn) [Example 638, 2-{5-Chloro-2-[3-([1,4]dioxane-2-carbonyl)-2,3,4,5-tetrahydro-1H-benzo[d]azepin-7-ylamino]-pyrimidin-4-ylamino}-N,N-dimethyl-benzenesulfonamide], for which the IC50 in assay [1] (setting [3]) and in assay [2] (setting [4]) was below 100 nM in each case.
As for `CCOCn1ccnc1-c1ccccc1Nc1nc(Nc2ccc3c(c2)CCN(CCOC)CC3)ncc1Cl` [Example 222, 5-Chloro-N*4*-[2-(1-ethoxymethyl-1H-imidazol-2-yl)-phenyl]-N*2*-[3-(2-methoxy-ethyl)-2,3,4,5-tetrahydro-1H-benzo[d]azepin-7-yl]-pyrimidine-2,4-diamine], the figures for the IC50 in assay [1] (setting [7]) and in assay [2] (setting [8]) were 1000 to 10000 nM and below 100 nM, respectively.
Regarding `COc1cc2c(cc1Nc1ncc(Cl)c(Nc3ccccc3S(=O)(=O)N(C)C)n1)CCN(Cc1ncco1)CC2` [Example 1170, 2-[5-Chloro-2-(8-methoxy-3-oxazol-2-ylmethyl-2,3,4,5-tetrahydro-1H-benzo[d]azepin-7-ylamino)-pyrimidin-4-ylamino]-N,N-dimethyl-benzenesulfonamide], the values for the IC50 in assay [1] (setting [5]) and in assay [2] (setting [6]) were 1000 to 10000 nM and below 100 nM, respectively.
On to `CCN1CC2CCC(C1)c1cc(Nc3ncc(Cl)c(Nc4ccccc4C(=O)NC)n3)ccc12` (stereo not drawn) [Example 271, 2-[5-Chloro-2-(10-ethyl-10-aza-tricyclo[6.3.2.0*2,7*]trideca-2,4,6-trien-4-ylamino)-pyrimidin-4-ylamino]-N-methyl-benzamide], for which the IC50 in assay [1] (setting [7]) and in assay [2] (setting [8]) was below 100 nM in each case.
As to `CC(C)N1C(=O)CCCc2cc(Nc3ncc(Cl)c(N[C@@H]4CCCC[C@H]4NS(C)(=O)=O)n3)ccc21` [Example 667, N-{(1R,2R)-2-[5-Chloro-2-(1-isopropyl-2-oxo-2,3,4,5-tetrahydro-1H-benzo[b]azepin-7-ylamino)-pyrimidin-4-ylamino]-cyclohexyl}-methanesulfonamide], the IC50 in assay [1] (setting [3]) was 100 to 1000 nM; in assay [2] (setting [4]), below 100 nM.
In the case of `CCN1CC(=O)N(CC)c2cc(Nc3ncc(Cl)c(Nc4c(C)csc4C(=O)NC)n3)ccc2C1` [Example 1874, 3-[5-chloro-2-(1,4-diethyl-2-oxo-2,3,4,5-tetrahydro-1H-benzo[e][1,4]diazepin-8-ylamino)-pyrimidin-4-ylamino]-4-methyl-thiophene-2-carboxylic acid methylamide], the IC50 in assay [1] (setting [9]) was below 100 nM; in assay [2] (setting [10]), 100 to 1000 nM.
As to `COCCN1CCc2cc(Nc3ncc(Cl)c(Nc4ccccc4S(=O)(=O)N4CC[C@H](C)C4)n3)c(OC)cc2CC1` [Example 854, 5-Chloro-N(2)-[8-methoxy-3-(2-methoxy-ethyl)-2,3,4,5-tetrahydro-1H-benzo[d]azepin-7-yl]-N(4)-[2-((S)-3-methyl-pyrrolidine-1-sulfonyl)-phenyl]-pyrimidine-2,4-diamine], the figures for the IC50 in assay [1] (setting [3]) and in assay [2] (setting [4]) were 100 to 1000 nM and below 100 nM, respectively.
As for `CCN1CC(O)(CO)COc2ccc(Nc3ncc(Cl)c(Nc4c(F)cccc4C(=O)NC)n3)cc21` (stereo not drawn) [Example 1720, 2-[5-Chloro-2-(9-ethyl-7-hydroxy-7-hydroxymethyl-6,7,8,9-tetrahydro-5-oxa-9-aza-benzocyclohepten-2-ylamino)-pyrimidin-4-ylamino]-3-fluoro-N-methyl-benzamide], the IC50 in assay [1] (setting [9]) was 100 to 1000 nM; in assay [2] (setting [10]), below 100 nM.
Consider `COc1cc2c(cc1Nc1ncc(Cl)c(N[C@H]3[C@@H](C(N)=O)[C@@H]4C=C[C@H]3C4)n1)CCN(CC(C)O)CC2` (stereo partly drawn) [Example 1548, (1S,2S,3R,4R)-3-{5-Chloro-2-[3-(2-hydroxy-propyl)-8-methoxy-2,3,4,5-tetrahydro-1H-3-benzazepin-7-ylamino]-pyrimidin-4-ylamino}-bicyclo[2.2.1]hept-5-ene-2-carboxylic acid amide], for which the IC50 is above 10000 nM in assay [1] (setting [9]) and below 100 nM in assay [2] (setting [10]).
In the same order, the values of `CN1CCN(C2CCN(C3CCc4ccc(Nc5ncc(Cl)c(Nc6c(F)cccc6OCC#N)n5)cc4CC3)CC2)CC1` (stereo not drawn) [Example 1483, [2-(5-Chloro-2-{7-[4-(4-methyl-piperazin-1-yl)-piperidin-1-yl]-6,7,8,9-tetrahydro-5H-benzocyclohepten-2-ylamino}-pyrimidin-4-ylamino)-3-fluoro-phenoxy]-acetonitrile] are below 100 nM and below 100 nM.
